The values below come from patent US4584404A, “Substituted phenoxyphenylproply dimethylamines” (priority 1983, dated 1986).

“Also recorded” adds a separate entry of the source.

The first experiment relates to norepinephrine uptake (synaptosomes from rat brain). The experiment in a line: blockade of norepinephrine uptake by synaptosomes from rat brain, in vitro, radioactive labelled compounds. The note with it: norepinephrine 0.48 μM. It is filed as biochemical. From the text:
(§1) This blockade is shown both in vitro with radioactive labelled compounds to determine the amount of monoamine uptake by synaptosomes from rat brain, and in vivo by a variety of methods. Among the physiologically active monoamines whose uptake is blocked by the compounds of this invention are included particularly serotonin (5HT) and norepinephrine(3,4-dihydroxyphenylethanolamine). […] Tables 1 and 2 which follow set forth the results of some of the in vitro determinations of the blockade of monoamine uptake by the compounds of this invention. In the tables, column 1 gives the R substituent on the 3-phenylpropylamine and columns 2-4, the concentration in micrograms per ml. that blocks the uptake by 50 percent of the monoamines--norepinephrine, serotonin, and dopamine. At the head of each column is given the concentration of the particular monoamine used in the experiment.
`Cc1ccccc1OC(CCN(C)C)c1ccccc1` (stereo not drawn) [o-tolyloxy, 3-o-tolyloxy-3-phenylpropyl dimethylamine]: the “Concentration that blocks 50% of norepinephrine uptake” value is “.35 µg/mL”.

As for `CN(C)CCC(Oc1ccc(Cl)cc1)c1ccccc1` (stereo not drawn) [p-chlorophenoxy, N,N-dimethyl 3-phenyl-3-(p-chlorophenoxy)-propylamine], the “Concentration that blocks 50% of norepinephrine uptake” value is “.3 µg/mL”.

`Cc1ccc(OC(CCN(C)C)c2ccccc2)cc1` (stereo not drawn) [p-tolyloxy, N,N-dimethyl 3-(p-tolyloxy)-3-phenylpropylamine]: the “Concentration that blocks 50% of norepinephrine uptake” value was “.015 µg/mL”.

For the molecule `CN(C)CCC(Oc1ccc(C(F)(F)F)cc1)c1ccccc1` (stereo not drawn) [p-trifluoromethylphenyloxy, N,N-dimethyl-3-(p-trifluoromethylphenoxy)-3-phenylpropylamine], the “Concentration that blocks 50% of norepinephrine uptake” value was determined as 70 µg/mL.

A further experiment has as its system serotonin uptake (synaptosomes from rat brain). The experiment in a line: blockade of serotonin (5HT) uptake by synaptosomes from rat brain, in vitro, radioactive labelled compounds. The experiment is classed as biochemical. The settings on record: serotonin 0.1 μM.
Excerpt: as §1
Take `Cc1ccccc1OC(CCN(C)C)c1ccccc1` (stereo not drawn) [o-tolyloxy, 3-o-tolyloxy-3-phenylpropyl dimethylamine]: the “Concentration that blocks 50% of serotonin uptake” value stood at 2 µg/mL.

With `CN(C)CCC(Oc1ccc(Cl)cc1)c1ccccc1` (stereo not drawn) [p-chlorophenoxy, N,N-dimethyl 3-phenyl-3-(p-chlorophenoxy)-propylamine], the “Concentration that blocks 50% of serotonin uptake” value was “.03 µg/mL”.

Regarding `Cc1ccc(OC(CCN(C)C)c2ccccc2)cc1` (stereo not drawn) [p-tolyloxy, N,N-dimethyl 3-(p-tolyloxy)-3-phenylpropylamine], the “Concentration that blocks 50% of serotonin uptake” value is “.4 µg/mL”.

In the case of `CN(C)CCC(Oc1ccc(C(F)(F)F)cc1)c1ccccc1` (stereo not drawn) [p-trifluoromethylphenyloxy, N,N-dimethyl-3-(p-trifluoromethylphenoxy)-3-phenylpropylamine], the “Concentration that blocks 50% of serotonin uptake” value is “.16 µg/mL”.

Another experiment deals with dopamine uptake (synaptosomes from rat brain). The experiment in a line: blockade of dopamine uptake by synaptosomes from rat brain, in vitro, radioactive labelled compounds. It is filed as biochemical. The note with it: dopamine 0.2 μM.
Excerpt: as §1
On to `Cc1ccccc1OC(CCN(C)C)c1ccccc1` (stereo not drawn) [o-tolyloxy, 3-o-tolyloxy-3-phenylpropyl dimethylamine], for which the “Concentration that blocks 50% of dopamine uptake” value worked out at 0.8 µg/mL.

As to `CN(C)CCC(Oc1ccc(Cl)cc1)c1ccccc1` (stereo not drawn) [p-chlorophenoxy, N,N-dimethyl 3-phenyl-3-(p-chlorophenoxy)-propylamine], the “Concentration that blocks 50% of dopamine uptake” value turned out to be 1.3 µg/mL.

`Cc1ccc(OC(CCN(C)C)c2ccccc2)cc1` (stereo not drawn) [p-tolyloxy, N,N-dimethyl 3-(p-tolyloxy)-3-phenylpropylamine]: the “Concentration that blocks 50% of dopamine uptake” value was above 100 µg/mL.

As to `CN(C)CCC(Oc1ccc(C(F)(F)F)cc1)c1ccccc1` (stereo not drawn) [p-trifluoromethylphenyloxy, N,N-dimethyl-3-(p-trifluoromethylphenoxy)-3-phenylpropylamine], the “Concentration that blocks 50% of dopamine uptake” value is above 100 µg/mL.

For a further experiment, the system named is NE uptake and 5HT uptake. Briefly: NE/5HT uptake inhibition selectivity. The experiment is classed as biochemical, rat. The note with it: 5HT vs NE; listed as IV.
Excerpt: as §1
Turning to `Cc1ccccc1OC(CCN(C)C)c1ccccc1` (stereo not drawn) [o-tolyloxy, 3-o-tolyloxy-3-phenylpropyl dimethylamine], the “uptake inhibition selectivity in words” value is “selective NE uptake inhibitors; also recorded: blocks NE preferentially”.

Staying with this experiment, now noted: ratio NE/5HT.
As to `Cc1ccccc1OC(CCN(C)C)c1ccccc1` (stereo not drawn) [o-tolyloxy, 3-o-tolyloxy-3-phenylpropyl dimethylamine], the “NE/5HT IC50 uptake ratio” value is “.5”.

`CN(C)CCC(Oc1ccc(Cl)cc1)c1ccccc1` (stereo not drawn) [p-chlorophenoxy, N,N-dimethyl 3-phenyl-3-(p-chlorophenoxy)-propylamine]: the “NE/5HT IC50 uptake ratio” value came out at 9.88.

On to `Cc1ccc(OC(CCN(C)C)c2ccccc2)cc1` (stereo not drawn) [p-tolyloxy, N,N-dimethyl 3-(p-tolyloxy)-3-phenylpropylamine], for which the “NE/5HT IC50 uptake ratio” value amounted to 5.83.

Regarding `CN(C)CCC(Oc1ccc(C(F)(F)F)cc1)c1ccccc1` (stereo not drawn) [p-trifluoromethylphenyloxy, N,N-dimethyl-3-(p-trifluoromethylphenoxy)-3-phenylpropylamine], the “NE/5HT IC50 uptake ratio” value came to 7.19.

Test system in the next experiment: not given
Test: not given
The settings on record: humans; cited from earlier work.
In the case of `CNCCC(Oc1ccc(C(F)(F)F)cc1)c1ccccc1` (stereo not drawn) [fluoxetine, 3-phenyl-3-(p-trifluoromethyl)phenoxypropyl methylamine], the antidepressant effect entry is reported as “highly potent antidepressant in humans”.
